According to patent US6069167A, “Use of antioxidant agents to treat cholestatic liver disease” (priority 1997, dated 2000):

Legend:
bile flow = conditions: continuous jugular vein TCDC infusion 0.4 to 0.6 μmol/min/100 gram over 60 minutes; cited from earlier work
[1] = Serum bile acid concentrations four hours after intravenous TCDC by GC-MS; format: in vivo, male Sprague-Dawley rats
Text: Young adult male Sprague-Dawley rats (150-180 gram weight) purchased from Sasco, Inc. (Omaha, Nebr.) were fed Purina Lab Chow (Ralston Purina Co., Chicago, Ill.) ad libitum for 2-3 weeks and housed in polyethylene cages with stainless steel tops on a 12-hour light-dark cycle. All rats received humane care in compliance with the guidelines of the Animal Use in Research Committee of the University of Colorado Health Sciences Center. Rats were then randomly assigned (4-5 per group) to receive 0 (vehicle only), 5, 10, or 20 μmol of taurochenodeoxycholic acid (TCDC)/100 gram body weight. TCDC is a conjugate of the bile acid most implicated in cholestatic liver injury9,11,12. TCDC was solubilized in 5% dextrose, 10% BSA, and 0.45% normal saline. TCDC was administered while rats were under light methoxyflurane anesthesia as an intravenous bolus of the desired dose in 1 to 2 minutes through the tail vein. TCDC dosing was performed between 7 and 9 am. Rats recovered from the injection uneventfully and blood was obtained at 0, 4, 8, 12 and 24 hours after the injection for determination of AST, ALT total bilirubin and alkaline phosphatase by an automated chemical analyzer (Hitachi 747 Chemical Analyzer).
(§1) Because serum AST and ALT concentrations peaked at 4 hours, further evaluation of liver injury was performed at that time point Total concentrations (conjugated+free bile acids) of individual bile acids were measured in serum obtained at 4 hours by gas chromatography-mass spectroscopy (GC-MS), as previously described^30. Briefly, after serum samples were extracted with the addition of the internal standard 7-alpha, 12-alpha, dihydroxy-5 beta cholanic acid, trimethylsilyl esterification was performed. Individual bile acids were then quantified by GC or GC-MS using a Hewlett-Packard 5790 flame ionization detector equipped with a 30 meter DB-1 capillary column with internal diameter of 0.25 mm and a film thickness of 0.25 micrometers (J & W Scientific, Folsom, Calif.). For GC-MS measurements, a Hewlett-Packard 5970-A mass selective detector operating in selective ion monitoring mode was used. Results were expressed as μmol/L for each individual bile acid.

TCDC hepatic toxicity = format: in vivo, male Sprague-Dawley rats; conditions: rat, in vivo
Text: Young adult male Sprague-Dawley rats (150-180 gram weight) purchased from Sasco, Inc. (Omaha, Nebr.) were fed Purina Lab Chow (Ralston Purina Co., Chicago, Ill.) ad libitum for 2-3 weeks and housed in polyethylene cages with stainless steel tops on a 12-hour light-dark cycle. All rats received humane care in compliance with the guidelines of the Animal Use in Research Committee of the University of Colorado Health Sciences Center. […] TCDC is a conjugate of the bile acid most implicated in cholestatic liver injury9,11,12. TCDC was solubilized in 5% dextrose, 10% BSA, and 0.45% normal saline. TCDC was administered while rats were under light methoxyflurane anesthesia as an intravenous bolus of the desired dose in 1 to 2 minutes through the tail vein. TCDC dosing was performed between 7 and 9 am. […] Rats were divided into two treatment groups. One group was pretreated with parenteral Vitamin E (all-rac-alpha tocopherol, […], Hoffmann-LaRoche,Nutley, N.J.). The other group was not pretreated. These rats then received either vehicle or TCDC (10 μmol/[…]) by tail vein injection (as described in Example 1). […] All i.p. injections were administered under light methoxyflurane anesthesia. Following the vitamin E or saline injections, rats were randomly assigned to receive a tail vein bolus injection of either TCDC or vehicle. Rats were sacrificed four hours later and serum was analyzed for AST, ALT, total bilirubin and alkaline phosphatase. […] The serum alpha tocopherol:total lipids ratio (mg/gm) was calculated as an additional index of vitamin E status^41.

hepatic mitochondria = assay: Lipid-conjugated dienes of hepatic mitochondria (lipid peroxidation); format: in vivo, male Sprague-Dawley rats
Method: Hepatic Mitochondria Isolation
Mitochondria were isolated from 10 grams of fresh liver from individual rats by a modification of a previously described method^27. Briefly, the liver was gently homogenized in a loose-fitting Potter-Elvehjm homogenizer in buffer containing 225 mM mannitol, 70 mM sucrose, 3 mM KH2 PO4, 2mM EDTA, 0.1% BSA, 5 mM MgCl2 (pH 7.0), filtered through cheesecloth and centrifuged at 400g×10 minutes. The supernatant was centrifuged at 10,000g for 10 minutes. The supernatant was aspirated and the pellet resuspended and centrifuged at 10,000g for 10 minutes. The resulting mitochondrial pellet was resuspended in 15 ml of buffer, divided into three tubes and added to digitonin (Sigma Chemical Company, St Louis, Mo., 0.29 mg for each gram of original liver) on wet ice×20 minutes, in order to minimize any contamination by lysosomes^28. The resulting mitochondrial preparation was washed two times in the original buffer and centrifuged at 10,000g for 10 minutes. Samples of the pellet were taken for enzyme marker analysis. Two more washes were then performed using a buffer containing 50 mM MOPS/100 mM KCI, yielding the final mitochondrial pellet.
Fresh mitochondria were analyzed for lipid peroxidation as an index of oxidant damage by the lipid-conjugated diene method of Recknagel and Ghoshal^35 with the modification of Bacon et al^36. Briefly, lipids were extracted from mitochondria pellets with chloroform and methanol (2:1, vol/vol), and the lipid in chloroform was dried under a stream of oxygen-free nitrogen^27. The dried lipid was redissolved in 1.5 ml of spectrophotometric grade cyclohexane. Absorbance from 220 to 275 nm was recorded against a cyclohexane blank on a Lambda 2 UV/is Spectrometer (Perkin-Elmer Corp., Norwalk, Conn.). Lipid concentration was approximately 0.5 mg/mi of cyclohexane. After the UV measurements, a 250 μl aliquot from each sample was analyzed for total lipid content by the method of Chiang et al.^37, and absorbance measurements were normalized to a denominator of 1.0 mg lipid per ml of cyclohexane. Lipid peroxidation was estimated by calculating the difference in absorption at 233 nm (the peak absorbance for conjugated dienes) between each rat and the mean of the values from control rats.
as §1
Rats were divided into two treatment groups. One group was pretreated with parenteral Vitamin E (all-rac-alpha tocopherol, Ephynal, Hoffmann-LaRoche,Nutley, N.J.). The other group was not pretreated. […]

[2] = 4 h after i.v. TCDC 10 μmol/100 gram, mean ± SEM, n = 5, P < 0.05 versus vehicle
[3] = 4 h after i.v. TCDC 10 μmol/100 gram, mean ± SEM, n = 5, conjugates plus unconjugates

C[C@H](CCC(=O)NCCS(=O)(=O)O)[C@H]1CC[C@H]2[C@@H]3[C@H](O)C[C@@H]4C[C@H](O)CC[C@]4(C)[C@H]3CC[C@]12C [TCDC, taurochenodeoxycholic acid]
Bile flow and hepatic bile secretion (bile flow): marked reduction in bile flow and of hepatic bile secretion | Serum individual bile acids, change versus vehicle ([1]; 4 h after i.v. TCDC 10 μmol/100 gram): significant increases in most bile acids | Serum alpha-muricholic acid concentration [1, 2]: 77.4 ± 15.9 µmol/L | Serum beta-muricholic acid concentration [1, 2]: 12.4 ± 3.3 µmol/L | Serum cholic acid concentration [1, 2]: 134.8 ± 30.2 µmol/L | Serum total bile acids concentration [1, 2]: 277.8 ± 49.0 µmol/L | Serum deoxycholic acid concentration [1, 3]: 4.8 ± 1.2 µmol/L | Serum lithocholic acid concentration [1, 3]: 0.6 ± 0.2 µmol/L | Serum ursodeoxycholic acid concentration [1, 3]: 4.4 ± 0.4 µmol/L | CDC concentrations, change ([1]; in vivo model, TCDC): elevated to a similar extent as the other bile acids | Lithocholate conjugates, change ([1]; in vivo model, TCDC): lack of substantial elevation | ALT (TCDC hepatic toxicity): 1111 ± 213 IU/L | AST (TCDC hepatic toxicity): 2472 ± 505 IU/L | Bilirubin (TCDC hepatic toxicity): 0.4 ± 0.1 mg/dL | Hepatic mitochondrial lipid-conjugated dienes, change versus vehicle (hepatic mitochondria; 4 h after TCDC 10 μmol/100 gram): significant elevations | Lipid-conjugated dienes (hepatic mitochondria; Control/TCDC, n = 13, 4 h): 0.24 ± 0.02 delta abs. 233 nm/mg lipid
